Reference: EP4775582A1, “MACROCYCLIC COMPOUND AND ANTIBODY-DRUG CONJUGATE THEREOF” (Genfleet Therapeutics (Shanghai) Inc., priority 2023, dated 2025)

Assays:
Assay type in all cases: cell-based, human
H441 p-ERK = assay: Cell p-ERK assay (HTRF), NCI-H441 cells; conditions: Homo sapiens; NCI-H441 cells (KRAS G12V), 3 h incubation
Protocol: (§1) The cells were digested with trypsin (containing EDTA), collected in their corresponding complete media, and counted. The density of the cell suspensions was adjusted with their corresponding complete media, and 10000 AsPC-1 cells or 20000 NCI-H441 cells per well were seeded into a 96-well cell culture plate, with the volume of the medium in each well being 80 µL. The cell culture plate was incubated in an incubator at 37 °C with 5% CO2 overnight. […] On the day after cell seeding, 20 µL of the 5× compound stock solution was added to each cell culture well. […] In addition to the compound-treated wells described above, cell-containing DMSO control wells were also set. A complete medium containing 0.5% DMSO was added at 20 µL/well. After the mixture was well mixed, the culture plate was incubated in the incubator at 37 °C with 5% CO2 for another 3 h. The medium was then removed from the culture wells, and 50 µL of cell lysis buffer (from Advance ERK phospho-T202/Y204 kit) was added to each well. The mixture was well mixed and incubated for 30 min. Then, 16 µL of the mixture was transferred to a white-bottomed, opaque 96-well assay plate, and separately, 16 µL of cell lysis buffer was added to additional wells (serving as blank wells) in the assay plate. After the transfer was completed, 4 µL of p-ERK HTRF antibody mixture (from Advance ERK phospho-T202/Y204 kit) was added to each well of the assay plate, followed by a 4-hour incubation. […] Using an XLfit software, the IR (%) values were plotted against the logarithm of the compound concentrations, and the dose-response curves were fitted using the four-parameter method to calculate the IC50 values.

AsPC-1 p-ERK = assay: Cell p-ERK assay (HTRF), AsPC-1 cells; conditions: Homo sapiens, ASPC1, 3 h, read-out: AsPC-1 p-ERK IC50(nM)
Protocol: as §1

NCI-H441 cells = assay: 3D cell proliferation assay (CellTiter Glo-3D), NCI-H441; conditions: Homo sapiens, 120 h, NCI-H441 cells (KRAS G12V), 2% FBS, 5 days, read-out: H441 AP IC50
Protocol: (§2) The cells were digested with trypsin (containing EDTA), collected in their respective low-serum complete media containing 2% FBS (for MIA Paca-2 cell culture: DMEM + 2% FBS + 0.5% Horse serum + 1% PS), and counted. After the cell density was adjusted as required, 200 MIA PaCa-2 cells, 800 AsPC-1 cells, 800 NCI-H441 cells, or 400 NCI-H1975 cells per well were seeded into a 384-well cell culture plate, with the volume of the medium in each well being 45 µL. The cell culture plate was incubated in an incubator at 37 °C with 5% CO2 overnight. […] On the day after cell seeding, 5 µL of the 10× compound stock solution was added to each cell culture well. […] In addition to the compound-treated wells described above, cell-containing DMSO control wells (with 5 µL of the complete medium containing 1% DMSO added to each well) and cell-free medium control wells (containing 50 µL of the complete medium with 2% FBS) were also set. The culture plate was incubated in an incubator at 37 °C with 5% CO2 for another 5 days, and then 30 µL of CellTiter-Glo working solution was added to each well. The mixture was well mixed, incubated for 30 min, left to stand at room temperature for 30 min, and then transferred to a white-bottomed, opaque 384-well assay plate at 40 µL/well. […] Using an XLfit software, the IR (%) values were plotted against the logarithm of the compound concentrations, and the dose-response curves were fitted using the four-parameter method to calculate the IC50 values.

AsPC-1 cells = assay: 3D cell proliferation assay (CellTiter Glo-3D), AsPC-1; conditions: Homo sapiens, ASPC1, 120 h, read-out: AsPC-1 AP IC50(nM)
Protocol: as §2

Compound	IC50 (H441 p-ERK) [nM]	IC50 (AsPC-1 p-ERK) [nM]	IC50 (NCI-H441 cells) [nM]	IC50 (AsPC-1 cells) [nM]
CCn1c(-c2cc(C#CCN3CCCN(C(=O)CO)CC3)cnc2[C@H](C)OC)c2c3cc(ccc31)-c1csc(n1)C[C@H](NC(=O)[C@H]1[C@@H]3COC[C@@H]31)C(=O)N1CCC[C@H](N1)C(=O)OCC(C)(C)C2 (atropisomer, axis not shown; (Ra)) [Compound Z19]	0.13	0.24	0.44	0.41
CCn1c(-c2cc(C#CCN3CCC(C#N)(CO)CC3)cnc2[C@H](C)OC)c2c3cc(ccc31)-c1csc(n1)C[C@H](NC(=O)[C@H]1[C@H](C)[C@@H]1C)C(=O)N1CCC[C@H](N1)C(=O)OCC(C)(C)C2 (atropisomer, axis not shown; (Ra)) [Compound Z23, (1r,2R,3S)-N-((6^3S,4S,Z)-(Ra)-1^2-(5-(3-(4-cyano-4-(hydroxymethyl)piperidin-1-yl)prop-1-yn-1-yl)-2-((S)-1-methoxyethyl)pyridin-3-yl)-1^1-ethyl-10,10-dimethyl-5,7-dioxo-6^1,6^2,6^3,6^4,6^5,6^6-hexahydro-1^1H-8-oxa-2(4,2)-thiazola-1(5,3)-indola-6(1,3)-pyridazinacycloundecaphane-4-yl)-2,3-dimethylcyclopropane-1-carboxamide]	0.1	0.08	0.06	0.03
CCn1c(-c2cc(C#CCN3CCC(C#N)(CO)CC3)cnc2[C@H](C)OC)c2c3cc(ccc31)-c1csc(n1)C[C@H](NC(=O)[C@H]1[C@@H]3COC[C@@H]31)C(=O)N1CCC[C@H](N1)C(=O)OCC(C)(C)C2 (atropisomer, axis not shown; (Ra)) [Compound Z30, (1R,5S,6r)-N-((6^3S,4S,Z)-(Ra)-1^2-(5-(3-(4-cyano-4-(hydroxymethyl)piperidin-1-yl)prop-1-yn-1-yl)-2-((S)-1-methoxyethyl)pyridin-3-yl)-11-ethyl-10,10-dimethyl-5,7-dioxo-6^1,6^2,6^3,6^4,6^5,6^6-hexahydro-1^1H-8-oxa-2(4,2)-thiazola-1(5,3)-indola-6(1,3)-pyridazinacycloundecaphane-4-yl)-3-oxabicyclo[3.1.0]hexane-6-carboxamide]	0.15	0.07	0.11	0.07
CCn1c(-c2cc(C#CCN3CCC(N)(C#N)CC3)cnc2[C@H](C)OC)c2c3cc(ccc31)-c1csc(n1)C[C@H](NC(=O)[C@H]1[C@@H]3COC[C@@H]31)C(=O)N1CCC[C@H](N1)C(=O)OCC(C)(C)C2 (atropisomer, axis not shown; (Ra)) [Compound Z51, (1R,5S,6r)-N-((6^3S,4S,Z)-(Ra)-1^2-(5-(3-(4-amino-4-cyanopiperidin-1-yl)prop-1-yn-1-yl)-2-((S)-1-methoxyethyl)-pyridin-3-yl)-1^1-ethyl-10,10-dimethyl-5,7-dioxo-6^1,6^2,6^3,6^4,6^5,6^6-hexahydro-11H-8-oxa-2(4,2)-thiazola-1(5,3)-indola-6(1,3)-pyridazinacycloundecaphane-4-yl)-3-oxabicyclo[3.1.0]hexane-6-carboxamide]	0.18	0.27	0.28	0.42
CCn1c(-c2cc(C#CCN3CCN(C)CC3)cnc2[C@H](C)OC)c2c3cc(ccc31)-c1csc(n1)C[C@H](NC(=O)[C@H]1[C@@H]3COC[C@@H]31)C(=O)N1CCC[C@H](N1)C(=O)OCC(C)(C)C2 (atropisomer, axis not shown; (Ra)) [Compound Z83, (1R,5S,6r)-N-((6^3S,4S,Z)-1^1-ethyl-(Ra)-1^2-(2-((S)-1-methoxyethyl)-5-(3-(4-methylpiperazin-1-yl)prop-1-yn-1-yl)pyridin-3-yl)-10,10-dimethyl-5,7-dioxo-6^1,6^2,6^3,6^4,6^5,6^6-hexahydro-1^1H-8-oxa-2(4,2)-thiazola-1(5,3)-indola-6(1,3)-pyridazinacycloundecaphane-4-yl)-3-oxabicyclo[3.1.0]hexane-6-carboxamide]	0.42	0.64	0.09	0.12

Second part, the compound after the results:

IC50 (H441 p-ERK) [nM]	IC50 (AsPC-1 p-ERK) [nM]	IC50 (NCI-H441 cells) [nM]	IC50 (AsPC-1 cells) [nM]	Compound
1.47	1.56	3.02	2.7	CO[C@@H](C)c1ncc(C#CCN2CCN(C(=O)CN)CC2)cc1-c1c2c3cc(ccc3n1C(C)C)-c1csc(n1)C[C@H](NC(=O)[C@H]1[C@@H]3COC[C@@H]31)C(=O)N1CCC[C@H](N1)C(=O)OCC(C)(C)C2 (atropisomer, axis not shown; (Ra)) [Compound Z84, (1R,5S,6r)-N-((6^3S,4S,Z)-(Ra)-1^2-(5-(3-(4-glycylpiperazin-1-yl)prop-1-yn-1-yl)-2-((S)-1-methoxyethyl)pyridin-3-yl)-1^1-isopropyl-10,10-dimethyl-5,7-dioxo-6^1,6^2,6^3,6^4,6^5,6^6-hexahydro-1^1H-8-oxa-2(4,2)-thiazola-1(5,3)-indola-6(1,3)-pyridazinacycloundecaphane-4-yl)-3-oxabicyclo[3.1.0]hexane-6-carboxamide]
1.51	2.08	2.04	2.59	CCn1c(-c2cc(C#CCN3CCN(C(=O)CNC)CC3)cnc2[C@H](C)OC)c2c3cc(ccc31)-c1csc(n1)C[C@H](NC(=O)[C@H]1[C@@H]3COC[C@@H]31)C(=O)N1CCC[C@H](N1)C(=O)OCC(C)(C)C2 (atropisomer, axis not shown; (Ra)) [Compound Z164]
13.7	10.3	24.4	10	CCn1c(-c2cc(C#CCN3CCN(C(=O)CN)CC3)cnc2[C@H](C)OC)c2c3cc(ccc31)-c1csc(n1)[C@@H](OCCN(C)C)[C@H](NC(=O)[C@H]1[C@H](C)[C@@H]1C)C(=O)N1CCC[C@H](N1)C(=O)OCC(C)(C)C2 (atropisomer, axis not shown; (Ra)) [Compound Z165]
0.53	0.97	2.78	1.36	CCn1c(-c2cc(C#CCN3CCS(=O)(=O)CC3)cnc2[C@H](C)OC)c2c3cc(ccc31)-c1csc(n1)C[C@H](Nc1n[nH]c3cc(C)ccc13)C(=O)N1CCC[C@H](N1)C(=O)OCC(C)(C)C2 (atropisomer, axis not shown; (Ra)) [Compound Z171, (6^3S,4S,Z)-(Ra)-1^2-(5-(3-(1,1-dioxidothiomorpholino)prop-1-yn-1-yl)-2-((S)-1-methoxyethyl)pyridin-3-yl)-1^1-ethyl-10,10-dimethyl-4-((6-methyl-1H-indazol-3-yl)amino)-6^1,6^2,6^3,6^4,6^5,6^6-hexahydro-1^1H-8-oxa-2(4,2)-thiazola-1(5,3)-indola-6(1,3)-pyridazinacycloundecaphane-5,7-dione]
1.03	1.83	3.26	6.05	CCn1c(-c2cc(C#CCN3CCCOCC3)cnc2[C@H](C)OC)c2c3cc(ccc31)-c1csc(n1)C[C@H](NC1=NOC(CC)(CC)C1)C(=O)N1CCC[C@H](N1)C(=O)OCC(C)(C)C2 (atropisomer, axis not shown; (Ra)) [Compound Z279, (6^3S,4S,Z)-(Ra)-1^2-(5-(3-(1,4-oxazepan-4-yl)prop-1-yn-1-yl)-2-((S)-1-methoxyethyl)pyridin-3-yl)-1^1-ethyl-10,10-dimethyl-4-((5,5-diethyl-4,5-dihydroisoxazol-3-yl)amino)-6^1,6^2,6^3,6^4,6^5,6^6-hexahydro-1^1H-8-oxa-2(4,2)-thiazola-1(5,3)-indola-6(1,3)-pyridazinacycloundecaphane-5,7-dione]
